Data published in PubChem BioAssay (NCI).
“And” between values parts separate entries of the source, which are not always exact repeats. Equal values may be shown once.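 The concentration for 50% growth inhibition is given as GI50. At the TGI there is no net growth.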

Key:
Assay in all cases: NCI tumour cell line growth inhibition, 384-well format
[1] = tested on: KM12 colon
[2] = tested on: OVCAR-3 ovarian
[3] = tested on: MDA-MB-468 breast
[4] = tested on: COLO 205 colon
[5] = tested on: MALME-3M melanoma
[6] = tested on: OVCAR-8 ovarian
[7] = tested on: SW-620 colon
[8] = tested on: NCI-H522 lung
[9] = tested on: MOLT-4 leukemia
[10] = tested on: HS 578T breast
[11] = tested on: SN12C renal
[12] = tested on: SF-295 CNS
[13] = tested on: NCI-H460 NSCLC
[14] = tested on: HT29 colon
[15] = tested on: MDA-MB-435 melanoma
[16] = tested on: SF-268 CNS
[17] = tested on: T-47D breast
[18] = tested on: 786-0 renal
[19] = tested on: SK-MEL-28 melanoma
[20] = tested on: K-562 leukemia
[21] = tested on: HL-60(TB) leukemia
[22] = tested on: EKVX NSCLC
[23] = tested on: UACC-257 melanoma
[24] = tested on: U251 glioblastoma
[25] = tested on: HCC-2998 colon
[26] = tested on: ACHN renal
[27] = tested on: UACC-62 melanoma
[28] = tested on: SNB-75 CNS
[29] = tested on: LOX IMVI melanoma

## CNC(=O)c1ccc(Nc2ncc(C(F)(F)F)c(NCc3nccnc3N(C)S(C)(=O)=O)n2)cc1
[1]
  GI50: 0.25 µM and 0.239 µM
  TGI: 2.36 µM and 2.86 µM
[2]
  GI50: 1.42 µM and 1.98 µM
  TGI: 3.94 µM and 4.84 µM
[3]
  GI50: 1.35 µM and 1.79 µM
  TGI: 2.95 µM and 3.71 µM
[4]
  GI50: 2.03 µM and 2.41 µM
  TGI: 5.34 µM and 5.98 µM
[5]
  GI50: 2.12 µM and 2.65 µM
  TGI: 4.88 µM and 6.18 µM
[6]
  GI50: 2.73 µM and 3.01 µM
  TGI: 7.71 µM and 8.76 µM
[7]
  GI50: 2.02 µM and 2.46 µM
  TGI: 4.39 µM and 5.13 µM
[8]
  GI50: 1.94 µM and 2.47 µM
  TGI: 3.63 µM and 4.42 µM
[9]
  GI50: 1.95 µM and 2.16 µM
  TGI: 3.58 µM and 3.84 µM
[10]
  GI50: 1.3 µM and 0.449 µM
  TGI: 3.1 µM and 2.42 µM
[11]
  GI50: 1.94 µM and 2.36 µM
  TGI: 4.12 µM and 4.97 µM
[12]
  GI50: 2.72 µM and 2.75 µM
  TGI: 9.23 µM and 8.16 µM
[13]
  GI50: 1.47 µM and 1.67 µM
  TGI: 3.13 µM and 3.37 µM
[14]
  GI50: 2.11 µM and 2.25 µM
  TGI: 5.19 µM and 5.71 µM
[15]
  GI50: 2.88 µM and 4.55 µM
  TGI: 11.8 µM and 14.4 µM
[16]
  GI50: 1.03 µM and 0.681 µM
  TGI: 2.35 µM and 2.26 µM
[17]
  GI50: 2.5 µM and 2.67 µM
  TGI: 6.9 µM and 7.18 µM
[18]
  GI50: 2.4 µM and 2.39 µM
  TGI: 10.8 µM and 8.97 µM
[19]
  GI50: 1.78 µM and 2.34 µM
  TGI: 3.65 µM and 4.72 µM
[20]
  GI50: 3.45 µM and 3.44 µM
  TGI: 16.8 µM
[21]
  GI50: 1.61 µM and 2.02 µM
  TGI: 2.97 µM and 3.47 µM
[22]
  GI50: 1.58 µM and 1.89 µM
  TGI: 4.56 µM and 5.27 µM
[23]
  GI50: 2.06 µM and 2.93 µM
  TGI: 5.32 µM and 8.36 µM
[24]
  GI50: 2.17 µM and 2.96 µM
  TGI: 7.56 µM and 10.2 µM
[25]
  GI50: 1.5 µM and 1.74 µM
  TGI: 4.34 µM and 4.68 µM
[26]
  GI50: 1.91 µM and 2.09 µM
  TGI: 9.33 µM and 9.55 µM
[27]
  GI50: 1.19 µM and 1.4 µM
  TGI: 2.49 µM and 2.81 µM
[28]
  GI50: 1.28 µM and 1.78 µM
  TGI: 3.69 µM and 4.75 µM
[29]
  GI50: 1.53 µM and 1.65 µM
  TGI: 3.34 µM and 3.52 µM
